The values below come from patent publication US6610729B1, “Hydroxamic acid derivatives and medicinal utilization thereof” (Mitsubishi Pharma Corporation, priority 1998, dated 2003).

The nature of data set [1]: Solubility in saline (0.9% aqueous sodium chloride solution) at 25° C. The data set is classed as physicochemical. Particulars: for solubility: saline or isotonic. Here is the method: The solubility of the Example compounds of the present invention in saline (0.9% aqueous sodium chloride solution) at 25° C. was measured.
In data set [2] the test system is release of TNF α from THP-1 cells. Put plainly: Inhibitory activity of TNF α release from THP-1 cells (LPS, ELISA). The note with it: 3 hr, 37° C., TNF α by ELISA. In kind it is cell-based. Here is the method:
The inhibitory effect of each compound (compounds of Examples 1, 2, 3, 6, 35, 39 and 44) on the release of TNF α from THP-1 cells which are monocyte cultured cells [see Nature 370, 218-220 (1994)] was investigated.
The THP-1 cells were suspended to a concentration of 1×10 ^6 cells/ml in RPMI1640 medium supplemented with 10% fetal calf serum (FCS) and dispensed by 100 μl. A 2 μg/ml LPS was prepared with RPMI1640 medium supplemented with 10% FCS. Each compound (dissolved in dimethyl sulfoxide) was diluted 500-fold with the LPS solution.
The diluted solutions of these compounds were added to the dispensed cell suspensions by 100 μl and allowed for 3 hr to react under the conditions of 37° C., 5% CO2. After the completion of the reaction, the reaction mixture was centrifuged and the culture supernatant was collected. The TNF α amount was quantitatively measured by ELISA (enzyme-linked immunosorbent assay). The TNF α release inhibitory effect by each compound was calculated from the proportion of released TNF α amount of the compound addition group relative to that of the compound non-addition group.
In general terms: An ELISA detects its analyte on a solid surface through an enzyme-linked reagent.

Data set [3] deals with release of TNF α from LPS treated human whole blood. Nature of the data set: Inhibitory activity of TNF α release from LPS treated human whole blood (ELISA). In kind it is cell-based. The note with it: LPS treated human whole blood diluted 4-fold, 24 hr, 37° C., TNF α by ELISA. As to the method: The inhibitory effect of each compound (compounds of Examples 2, 6, 7, 10, 11, 37, 147, 231 and 245) on the release of TNF α from LPS treated human whole blood [see: Lymphokine Res 8, 141-146 (1989)] was investigated.
Human whole blood was diluted 4-fold with RPMI1640 medium supplemented with 10% FCS. The diluted blood was dispensed to a 96 multi-well plate by 100 μl and equilibrated under the conditions of 37° C., 5% CO2. LPS (2 μg/ml) was prepared with RPMI1640 medium supplemented with 10% FCS and a culture broth prepared by dissolving each compound (dissolved in dimethyl sulfoxide) in the LPS solution was added by 100 μl/well (final concentrated of dimethyl sulfoxide 0.1%), which was followed by incubation for 24 hr (37° C., 5% CO2). After the incubation, the reaction mixture was centrifuged (1,500 rpm, 5 min). The culture supernatant (40 μl/well) was collected, and TNF α amount in the supernatant was quantitatively measured by ELISA. The TNF α release inhibitory effect by each compound was calculated from the proportion of release TNF α amount of the compound addition group relitive to that of the compound non-addition group.

Where a name gives a salt, the structure may show the parent alone. Where only a bound is given, the exact number is not on record here.

In turn, `CC(C)C[C@@H](C(=O)N[C@@H](Cc1ccc(S(=O)(=O)[O-])cc1)C(=O)c1ccco1)C(Cc1ccccc1)C(=O)NO.[Na+]` (single isomer, unassigned) [Example 9, Sodium Salt of 2(R or S)-Benzyl-3(R)-[1(S)-(2-furyl)carbonyl-2-(4-sulfophenyl)ethylcarbamoyl]-5-methylhexanohydroxamic Acid] gave a solubility in data set [1] above 20 mg/mL.
Take `CC(C)C[C@@H](C(=O)N[C@H](C(=O)c1ccc(OCCN(C)C)cc1)C(C)(C)C)C(CN1C(=O)c2ccccc2C1=O)C(=O)NO.Cl` (single isomer, unassigned) [Example 39, 3(R)-[2,2-Dimethyl-1(S)-[4-(2-dimethylaminoethoxy)benzoyl]]propylcarbamoyl-5-methyl-2(R or S)-phthalimidomethylhexanohydroxamic Acid Hydrochloride]: in data set [2], the IC50 is 0.3 µM. The “Solubility, saline” value in data set [1] is above 20 mg/mL.
For the compound `CC(C)C[C@@H](C(=O)N[C@H](C(=O)c1ccc(OCCN(C)C)cc1)C(C)(C)C)C(CCCc1ccccc1)C(=O)NO.Cl` (single isomer, unassigned) [Example 88, 3(R)-[2,2-dimethyl-1(S)-[4-(2-dimethylaminoethoxy)benzoyl]]propylcarbamoyl-5-methyl-2(R or S)-(3-phenylpropyl)hexanohydroxamic acid hydrochloride], the “Solubility, saline” value in data set [1] came out at 5 mg/mL.
Consider `CC(C)C[C@@H](C(=O)N[C@@H](Cc1ccc(OCCN(C)C)cc1)C(=O)c1ccco1)C(CN1C(=O)N(C)C(C)(C)C1=O)C(=O)NO.Cl` (single isomer, unassigned) [Example 5, 3(R)-[2-[4-(2-Dimethylaminoethoxy)phenyl]-1(S)-(2-furyl)carbonyl]ethylcarbamoyl-5-methyl-2(R or S)-(2,5-dioxo-3,4,4-trimethyl-1-imidazolidinyl)methylhexanohydroxamic Acid Hydrochloride], for which, in data set [1], the solubility is above 20 mg/mL.
In data set [3], `CC(C)C[C@@H](C(=O)N[C@@H](Cc1ccc(S(=O)(=O)[O-])cc1)C(=O)c1ccco1)C(CN1C(=O)c2ccccc2C1=O)C(=O)NO.[Na+]` (single isomer, unassigned) [Example 10, Sodium Salt of 3(R)-[1(S)-(2-Furyl)carbonyl-2-(4-sulfophenyl)ethylcarbamoyl]-5-methyl-2(R or S)-phthalimidomethylhexanohydroxamic Acid] gave an IC50 of 1.7 µM. In data set [1], this compound displayed a solubility of 10 mg/mL.
Compound `CC(C)C[C@@H](C(=O)N[C@@H](Cc1ccccc1)C(=O)c1ccc(OCCN(C)C)cc1)C(CN1C(=O)N(C)C(C)(C)C1=O)C(=O)NO.Cl` (single isomer, unassigned) [Example 37, 3(R)-[1(S)-[4-(2-Dimethylaminoethoxy)benzoyl]-2-phenyl]ethylcarbamoyl-5-methyl-2(R or S)-(2,5-dioxo-3,4,4-trimethyl-1-imidazolidinyl)methylhexanohydroxamic Acid Hydrochloride] came in with an IC50 in data set [3] of 3.47 µM. Also, the “Solubility, saline” value in data set [1] is above 20 mg/mL.
`CC(C)C[C@@H](C(=O)N[C@@H](Cc1ccccc1)C(=O)c1ccc(OCCN(C)C)cc1)C(CCCc1ccccc1)C(=O)NO.Cl` (single isomer, unassigned) [Example 35, 3(R)-[1(S)-[4-(2-Dimethylaminoethoxy)benzoyl]-2-phenyl]ethylcarbamoyl-5-methyl-2(R or S)-(3-phenylpropyl)hexanohydroxamic Acid Hydrochloride]: the IC50 in data set [2] was 0.14 µM. In addition, the “Solubility, saline” value in data set [1] was above 20 mg/mL.
Compound `CC(C)C[C@@H](C(=O)N[C@@H](Cc1ccc(S(=O)(=O)[O-])cc1)C(=O)c1ccco1)C(CN1Cc2ccccc2C1=O)C(=O)NO.[Na+]` (single isomer, unassigned) [Example 11, Sodium Salt of 3(R)-[1(S)-(2-Furyl)carbonyl-2-(4-sulfophenyl)ethylcarbamoyl]-5-methyl-2(R or S)-(1-oxoisoindolin-2-ylmethyl)hexanohydroxamic Acid] had an IC50 in data set [3] of 1.73 µM. In data set [1], this compound had a solubility above 20 mg/mL.
In the case of `CC(C)C[C@@H](C(=O)N[C@@H](Cc1ccccc1)C(=O)c1ccc(OCCN2CCN(C)CC2)cc1)C(CN1C(=O)c2ccccc2C1=O)C(=O)NO` (single isomer, unassigned) [Example 1, 5-Methyl-3(R)-[1(S)-[4-[2-[1-(4-methyl)piperazinyl]ethoxy]benzoyl]-2-phenyl]ethylcarbamoyl-2(R or S)-phthalimidomethylhexanohydroxamic Acid Dihydrochloride], inhibition in data set [2] (Homo sapiens) was half-maximal at 0.27 µM (IC50). The compound also returned a solubility in data set [1] above 10 mg/mL.
`CC(C)C[C@@H](C(=O)N[C@H](C(=O)c1ccc(OCCN(C)C)cc1)C(C)(C)C)C(CN1C(=O)N(C)C(C)(C)C1=O)C(=O)NO.Cl` (single isomer, unassigned) [Example 147, 3(R)-[2,2-Dimethyl-1(S)-[4-(2-dimethylaminoethoxy)benzoyl]]propylcarbamoyl-5-methyl-2(R or S)-(2,5-dioxo-3,4,4-trimethyl-1-imidazolidinyl)methylhexanohydroxamic Acid Hydrochloride] came in with an IC50 in data set [3] of 2.29 µM. The “Solubility, saline” value in data set [1] is above 20 mg/mL.
Compound `CC(C)C[C@@H](C(=O)N[C@@H](Cc1ccc(NC(=N)N)cc1)C(=O)c1ccco1)C(CN1C(=O)c2ccccc2C1=O)C(=O)NO` (single isomer, unassigned) [Example 3, 3(R)-[1(S)-(2-Furyl)carbonyl-2-(4-guanidinophenyl)]ethylcarbamoyl-5-methyl-2(R or S)-phthalimidomethylhexanohydroxamic Acid Hydrochloride] returned an IC50 in data set [2] (Homo sapiens) of 0.19 µM.
Regarding `CC(C)C[C@@H](C(=O)N[C@@H](Cc1ccc(OS(=O)(=O)[O-])cc1)C(=O)c1ccco1)C(CN1C(=O)N(C)C(C)(C)C1=O)C(=O)NO.[Na+]` (single isomer, unassigned) [Example 84, Sodium Salt of 3(R)-[1(S)-(2-Furyl)carbonyl-2-[4-(hydroxysulfonyloxy)phenyl]]ethylcarbamoyl-5-methyl-2(R or S)-(2,5-dioxo-3,4,4-trimethyl-1-imidazolidinyl)methylhexanohydroxamic Acid], the “Solubility, saline” value in data set [1] was above 20 mg/mL.
The compound `CC(C)C[C@@H](C(=O)N[C@@H](Cc1ccc(S(=O)(=O)[O-])cc1)C(=O)c1ccco1)C(Cc1cccc2ccccc12)C(=O)NO.[Na+]` (single isomer, unassigned) [Example 8, Sodium Salt of 3(R)-[1(S)-(2-Furyl)carbonyl-2-(4-sulfophenyl)ethylcarbamoyl]-5-methyl-2(R or S)-(1-naphthylmethyl)hexanohydroxamic Acid] yielded a solubility in data set [1] above 20 mg/mL.
`CC(C)C[C@@H](C(=O)N[C@@H](Cc1ccc(S(=O)(=O)[O-])cc1)C(=O)c1ccco1)C(Cc1ccc2ccccc2c1)C(=O)NO.[Na+]` (single isomer, unassigned) [Example 7, Sodium Salt of 3(R)-[1(S)-(2-Furyl)carbonyl-2-(4-sulfophenyl)ethylcarbamoyl]-5-methyl-2(R or S)-(2-naphthylmethyl)hexanohydroxamic Acid] returned an IC50 in data set [3] of 2.46 µM. The same compound registered a solubility in data set [1] above 20 mg/mL.
For the compound `CC(C)C[C@@H](C(=O)N[C@@H](Cc1ccc(OCCN(C)C)cc1)C(=O)c1ccco1)C(CCCc1ccccc1)C(=O)NO` (single isomer, unassigned) [Example 44, 3(R)-[2-[4-(2-dimethylaminoethoxy)phenyl]-1(S)-(2-furyl)carbonyl]ethylcarbamoyl-5-methyl-2(R or S)-(3-phenylpropyl)hexanohydroxamic acid hydrochloride], the IC50 in data set [2] amounted to 0.42 µM. This counts as sub-micromolar.
The compound `CC(C)C[C@@H](C(=O)N[C@@H](Cc1ccccc1)C(=O)c1ccc(CO)o1)C(CN1C(=O)N(C)C(C)(C)C1=O)C(=O)NO` (single isomer, unassigned) [Example 245, 3(R)-[1(S)-[2-(5-Hydroxymethyl)furyl]carbonyl-2-phenyl]ethylcarbamoyl-5-methyl-2(R or S)-(2,5-dioxo-3,4,4-trimethyl-1-imidazolidinyl)methylhexanohydroxamic Acid] displayed an IC50 in data set [3] of 3.74 µM.

In general, solubility refers to the dissolved amount per volume that the medium holds. The low end stands for little dissolved substance, the high end for much dissolved substance. For orientation: IC50 means the concentration that inhibits the measured activity by half. A lower IC50 goes with inhibition by little substance.
